From patent US4221705A, “Novel peptide type antibiotic and the process for the production thereof” (priority 1977, dated 1980)

Test: Acute Toxic characters (Mouse LD50)
Assay type: in vivo
Conditions: HCl salt; for Mouse LD50: female; for LD50: mouse, in vivo, male
[1] = ip, Intraperitoneal Administration
[2] = sc, Subcutaneous Administration

## C[C@@H](O)[C@H](NC(=O)[C@@H](CCCN)NC(=O)[C@H](CC(O)CNC(=N)N)NC(=O)[C@@H](N)CCCNC(=N)N)C(=O)N[C@H](CCCN)C(=O)N[C@@H](CC(O)CNC(=N)N)C(=O)N[C@H](Cc1ccc(O)cc1)C(=O)O (single isomer, unassigned) [L-ARG--L-(ARG(OH)--D-ORN--L-THR--D-ORN--L-ARG(OH)--D-TYR]
Intraperitoneal Administration
  Mouse LD50: 43.2 to 57.2 mg/kg
Intravenous Administration
  Mouse LD50: 24.1 to 34.8 mg/kg
  LD50: 24.1 to 34.8 mg/kg
Oral Administration
  Mouse LD50: 2400 to 3000 mg/kg
  LD50: 2400 to 3000 mg/kg
Subcutaneous Administration
  Mouse LD50: 104 to 125 mg/kg
[1]
  LD50: 43.2 to 57.2 mg/kg
[2]
  LD50: 86.8 to 104 mg/kg

## C[C@@H](O)[C@H](NC(=O)[C@@H](CCCN)NC(=O)[C@H](CC(O)CNC(=N)N)NC(=O)[C@@H](N)CCCNC(=N)N)C(=O)N[C@H](CCCN)C(=O)N[C@@H](CCCCN)C(=O)N[C@H](Cc1ccc(O)cc1)C(=O)O (single isomer, unassigned) [L-ARG--L-ARG(OH)--D-ORN--L-THR--D-ORN--L-Lys--D-TYR]
Intraperitoneal Administration
  Mouse LD50: above 300 mg/kg
Intravenous Administration
  Mouse LD50: 144 to 1728 mg/kg
  LD50: 120 to 144 mg/kg
Oral Administration
  Mouse LD50: above 6000 mg/kg
  LD50: > 6000 mg/kg
Subcutaneous Administration
  Mouse LD50: ≥ 320 mg/kg
[1]
  LD50: > 300 mg/kg
[2]
  LD50: ≥ 320 mg/kg
